The values below come from US11166942B2 (PRAXIS BIOTECH LLC, priority 2018, dated 2021).

Test [1] concerns ATF4. Description: ATF4 expression inhibition assay (ATF4 5'UTR luciferase reporter, Tg-stressed HEK293T cells). Format: cell-based, human. The note with it: Homo sapiens, HEK-293T, 3 h, 100 nM thapsigargin, 3 hours, HEK293T ATF4 luciferase reporter. Put shortly:
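HEK293T stably expressing luciferase fused downstream of human full-length ATF4 5′UTR, stressed with 100 nM thapsigargin plus compound (100 nM or 1 μM; IC50 series 0.1 nM to 1 μM) for 3 h at 37° C. Luminescence normalized to Tg alone (0%) and untreated cells (100% inhibition).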
On the technique in general: Reporter assays use an easily measured gene product as a stand-in for the process of interest.

Test [2] has as its system CT26 tumor-bearing Balb/c mice, gastrocnemius. Description: Cachexia-induced muscle atrophy. Format: in vivo, mouse. The settings on record: 10 mg/kg daily oral gavage for 12 days. The procedure: Wild type six-weeks-old male Balb/c mice obtained from the vivarium Fundación Ciencia & Vida Chile (Santiago, Chile) were used. Mice were housed in independent plastic cages in a room maintained at 25° C. with a 12-h:12-h light:dark cycle.
1×10^6 CT26 colon carcinoma cell line (ATCC #CRL-2638, ATCC Manassas, Va.) were injected subcutaneously in the right lower flank of each animal for induction of cachexia-induced muscle atrophy as described (Nat Commun. 2012 Jun. 12; 3:896). Non-injected animals were used as controls. At day 7 post tumor-cell injection, animals were randomized into two groups and treated with 10 mg/kg of test compound formulated in 50% Polyethylene glycol (PEG-400) in distilled water, or with vehicle (50% PEG-400 in distilled water) by daily oral gavage for 12 days.
After 12 treatments, animals were sacrificed and gastrocnemius were removed from both hindlimbs. Muscles derived from non-tumor-bearing mice were used as control.
Upon collection, muscles were immediately frozen in liquid nitrogen and then stored at −80° C. The frozen muscles were then homogenized with a T 10 basic ULTRA-TURRAX (IKa) in ice-cold buffer lysis (Cell Signaling 9803) and protease and phosphatase inhibitors (Roche). Lysates were sonicated for 3 min and centrifuged at 13,000 rpm for 20 minutes at 4° C. Protein concentration in supernatants was determined using BCA Protein Assay Kit (Pierce). Equal amount of protein was loaded on SDS-PAGE gels. […]
ATF4 (Abcam), Atrogin-1 (ECM Biosciences), MuRF-1 (Santa Cruz Biotechnology) and β-actin (Sigma-Aldrich) antibodies were used as primary antibodies. […] Quantification of protein bands was done by densitometry using ImageJ software.
Expression of ATF4 and the muscle atrophy markers, Atrogin-1 and MuRF-1, of gastrocnemius derived from control and CT26 tumor-bearing mice treated with vehicle or compound 58 are shown in FIG. 10A. […] The levels were normalized to β-actin expression and percentage was calculated as the percent relative to the expression of non-tumor-bearing mice (Control) which corresponds to 100%. […]

The subject of test [3] is ATF4. Description: ATF4 expression inhibition assay (immunoblot, Tg-stressed HEK293T cells). Format: cell-based, human. The settings on record: 100 nM Tg, 3 hours, 0.1 nM to 10 μM compound (FIG. 6). The procedure: HEK293T cells were maintained at 37° C. and 5% CO2 in Dulbecco's Modified Eagle's Media (DMEM) supplemented with 10% fetal bovine serum (FBS), 2 mM L-glutamine, 100 U/ml penicillin, and 100 μg/ml streptomycin. After reaching 80% of confluence, cells were detached and seeded on 6 well plates in complete media, allowed to recover overnight and treated for 3 hours with 100 nM thapsigargin (Tg) in the presence of various concentrations ranging from 0.1 nM to 10 μM. Cells without treatment (Veh) or cells treated with Tg alone were used as controls.
After 3 hours of treatment with Tg and the test compound, cells were lysed with SDS-PAGE lysis buffer. Lysates were transferred to 1.5 ml tubes and sonicated for 3 min, and total protein amounts were quantified using BCA Protein Assay Kit (Pierce). Equal amount of proteins was loaded on SDS-PAGE gels. Proteins were transferred onto […] PVDF membranes (BioRad) and probed with primary antibodies diluted in Tris-buffered saline supplemented with 0.1% Tween 20 and 3% bovine serum albumin.
ATF4 (11815) antibody (Cell Signaling Technologies) and β-actin (Sigma-Aldrich) antibodies were used as primary antibodies. […]
For orientation: A western blot detects proteins with antibodies after separation by electrophoresis.

Broadly, the inhibition is the relative decrease from the control value, in per cent. One may read the IC50 as the concentration that inhibits the measured activity by half.

Each structure is given as a SMILES string.

For `O=C(NN1CCN(C[C@@H](O)COc2ccc(Cl)c(F)c2)CC1)c1ccc2cc(Cl)ccc2n1` [Compound 58, (R)-6-chloro-N-(4-(3-(4-chloro-3-fluorophenoxy)-2-hydroxypropyl)piperazin-1-yl)quinoline-2-carboxamide], the inhibition at 0.1 µM in the test on ATF4 [1] (100 nM test compound, read-out: % ATF4 inhibition at 100 nM) is 86.5%. Moreover, the IC50 in the test with ATF4 [1] (read-out: ATF4 inhbition IC50) was 5.7 nM. For the same compound, the inhibition at 1 µM in the test with ATF4 [1] (1 μM test compound, read-out: % ATF4 inhibition at 1 μM) was found to be 97.6%. The “ATF4 expression in gastrocnemius” value in test [2] (vs vehicle (FIG. 10B)) was “reduction”. Besides, the “Atrogin-1 expression in gastrocnemius” value in test [2] (vs vehicle (FIG. 10C)) is “reduction”. The “MuRF-1 expression in gastrocnemius” value in test [2] (vs vehicle (FIG. 10D)) is given as “reduction”. Moreover, in the test with ATF4 [3], the “ATF4 expression under Tg stress (immunoblot)” value is “inhibits the expression of ATF4 under Tg treatment in a dose dependent manner”.
